Data from publication PMC10001106, “A New Bloody Pulp Selection of Myrobalan (Prunus cerasifera L.): Pomological Traits, Chemical Composition, and Nutraceutical Properties” (Foods, 2023).

How the values were obtained:
Settings in all cases: mean ± SD, n = 3
[1] = β-carotene bleaching test
Description: (§1) All the procedures were previously detailed. The Relative Antioxidant Capacity Index (RACI) was applied to evaluate the sample characterized by the highest activity. Linear regression, assessment of repeatability, calculation of average, relative standard deviation (SD), and Pearson’s correlation coefficient (r) were calculated by using Microsoft Excel 2010 software (Redmond, WA, USA). The results were expressed as the means of three different experiments ± SD.

[2] = DPPH radical scavenging test
Description: as §1

[3] = ABTS radical scavenging test
Description: as §1

Compound	β-Carotene Bleaching Test (IC50) [1]	DPPH Test (IC50) [2]	ABTS Test (IC50) [3]
CCCOC(=O)c1cc(O)c(O)c(O)c1 [Propyl gallate]	0.09 ± 0.04 µg/mL		
O=C1O[C@H]([C@@H](O)CO)C(O)=C1O [Ascorbic acid]		5.04 ± 0.81 µg/mL	1.72 ± 0.14 µg/mL
